The results in this text go back to US9534016B2, “Netrin loop peptide mimetics and uses thereof” (Buck Institute for Research on Aging, priority 2011, dated 2017).

This assay has as its system ERK phosphorylation associated with APP based cell signaling. The assay is described as follows: ERK phosphorylation, Western blot, B103 cells co-transfected with APP. The source says:
This effect is not seen with cyclic peptide-2 or cyclic peptide-3. […] Cyclic peptide-1 is APP specific
ERK phosphorylation is associated with cell signaling. […] This assay was based on a western blot analysis.
(In general: A western blot detects proteins with antibodies after separation by electrophoresis.)

As to C-P-H-F-C [cyclic peptide-2], the ERK phosphorylation result (Western blot, APP cells (B103 co-transfected with APP), cyclic peptide-1 at 21 uM) was “not seen”. Also, under “cyclized loop peptides prepared and tested”, the “modulate ERK phosphorylation and/or switch APP processing from aberrant to normal” value was “shown to modulate ERK phosphorylation and/or to switch APP processing from aberrant to normal”.
